Assay results published in US8927280B2, “Compositions and methods for promoting the generation of definitive endoderm” (President and Fellows of Harvard College, priority 2009, dated 2015).
“Also recorded” adds a separate entry of the source.

Columns and labels:
[1] = tested on: human ES cells (HUES 4 and 8); assay: Sox17 endoderm induction in human ES cells; type: cell-based; settings: for dose dependence of Sox17 expression: HUES 4 and 8; for percent of cells expressing Sox17: HUES cells, 4 days, IDE1 100 nM, IDE2 200 nM
Description: Human embryonic stem cell lines were cultured essentially as described {Cowan, 2004 #6}. Briefly, HUES4, HUES8 and HUES9 cells are routinely cultured on irradiated CF-1 MEF feeder cells in KnockOut DMEM (Gibco) supplemented with 10% KnockOut Serum Replacement (Gibco), 10% human plasma (Invitrogen), 2 mM L-glutamine (L-Glu, Gibco), 1.1 mM 2-mercaptoethanol (Gibco), 1 mM nonessential amino acids (Gibco), 1× penicillin/streptomycin (PS, Gibco) and 10 ng/ml bFGF (Invitrogen). Cells are split at the ratio of 1:10-1:12 every 4-5 days by using 1 mg/ml collagenase type IV. To induce endoderm formation, HUES cells was cultured on MEF feeder cells till 80-90% confluent, then treated with 100 ng/ml Activin A in advanced RPMI (Gibco) supplemented with 1×L-Glu and 0.2% FBS (Gibco), or with combination of 25 ng/ml Wnt3a (R&D systems)+100 ng/ml Activin A (R&D systems) or were exposed to compounds in the same media. At days 4 and 6 of culture cells were analysed for endodermal marker expression, Sox17.
(§1) Cells were fixed in 4% paraformaldehyde (Sigma) in PBS for 20 min at 4° C. followed by a wash with PBS. Cells were blocked with 10% donkey serum (Jackson Immunoresearch) in PBS/0.1% Triton X and incubated with primary antibodies overnight at 4° C. Secondary antibodies were incubated for 1 h at room temperature. The following antibodies and dilutions were used: goat anti-SOX17, (1:500 R&D systems); rabbit anti-PDX1 (1:200, Chemicon), rabbit anti-FoxA2 (1:500; Upstate), rabbit anti-Dab2 (1:200, Santa Cruz), rabbit anti-SPARC (1:200, Santa Cruz,), mouse anti-AFP (1:100, Sigma), anti-Gata6 (1:50, Santa Cruz Biotech), goat anti-HNF6 (1:200, Santa Cruz Biotech), rabbit anti-RFP/DsRed (1:300, MBL), rabbit anti-GFP (1:200, Molecular Probes). Secondary antibodies were: rhodamine Red-X-conjugated donkey anti-goat antibody, 1:200 (JIRL), Alexa-488-conjugated goat anti-mouse and Alexa-594-conjugated goat anti-rabbit antibodies (1:300, Molecular Probes). Nuclei were visualized by Hoechst 33342 (1:1000, Molecular Probes). Images were taken using an Olympus IX70 Microscope. For quantification images were analyzed for the frequency of SOX17+, FoxA2+ or Pdx1+ cells using Metamorph image analysis software (Molecular Devices) and at least 6 images per well were collected. Data were confirmed in four independent experiments.

[2] = tested on: mouse ES cells; assay: Extra-embryonic endoderm markers and morphology of induced Sox17+ cells (immunostaining); type: cell-based; settings: for morphology of induced Sox17+ cells: immunostaining with α-Sox17 antibody; for expression of extra-embryonic endoderm (EE) markers GATA4, SPARC, AFP, Dab2 in induced Sox17+ cells: mouse ES cells, immunostaining
Description: as §1
During evaluation of primary hit compounds, the inventors observed that small molecules induced Sox17+ cells with two distinct morphologies. One class, including IDE1 and IDE2, induced clustered populations of Sox17+ cells, whereas other compounds led to the formation of a dispersed population of Sox17+ cells. […] Sox17 is expressed in definitive endoderm, but also in extra-embryonic endoderm, and in other germ layer derivatives at later stages of development including vascular endothelium (Kanai-Azuma et al., 2002; Matsui et al., 2006). Since the positive identification of definitive endoderm is hindered by the lack of unique markers that are expressed exclusively there, and not present in other types of endoderm, the inventors performed a negative selection and tested for markers of extra-embryonic endoderm. It was found, that the vast majority (>95%) of the dispersed Sox17+ cells (class II) also expressed extra-embryonic endoderm markers including Gata4 (Morrisey et al., 1996), SPARC (Mason et al., 1986), AFP (Dziadek, 1979) and Dab2 (Yang et al., 2002) (Suppl. FIG. 2B).

[3] = tested on: Smad2; assay: Western blot analysis of Smad2 phosphorylation in ES cell lysates; type: cell-based, mouse; settings: ES cell lysates, after 24 hrs or longer
Description: Cells were lysed in 1×RIPA lysis buffer in the presence of protease inhibitor mixture (Roche)/1% phosphatase inhibitor mixture (Roche). Proteins were separated by 10% Tris-Glycine SDS/PAGE (Bio-rad) under denaturing conditions and transferred to a nitrocellulose membrane. After blocking with 5% skim milk in PBS/0.1% Triton X, the membrane was incubated with primary antibodies against phospho-Smad2 (1:1000, Cell Signaling) overnight at 4° C. The membrane was then washed, incubated with anti-mouse/rabbit peroxidase-conjugated affinity-purified secondary antibody (1:1000, Cell Signaling) at room temperature for 1 h, and developed by SuperSignal chemiluminescence (Pierce).

[4] = tested on: gut tube of E8.75 mouse embryos; assay: Injection of compound induced endoderm into gut tube of E8.75 mouse embryos, ex vivo embryo culture; type: in vivo; settings: for incorporation of induced endodermal cells into gut tube (in words): FoxA2, Cldn6 and YFP staining; for embryos in which induced cells integrated into the gut: cells treated 6 days, injected into E8.75 embryos, 24-30 hrs ex vivo culture
Description: Mouse E8.5 ICR embryos were dissected in Hanks Balanced Salt Solution and cultured in the DMEM/F12 (Invitrogen) media supplemented with 50% rat serum (Valley Biomedical), penicillin, streptomycin, glutamine at 37° C. for 20-24 hrs. The YFP mouse ES cells were cultured in the presence of hit compounds for 6 days to induce endoderm formation and then cells were dissociated with trypsin and approx. 100 000 cells were injected into gut tube of E8.75 embryos. Following injections, embryos were transferred to rotating bottle culture unit and were then cultured in media (1.5-2 ml per embryo) as above under humidified conditions at 40% O2, 5% CO2, 55% N2, and 37° C. After 30 hrs culture, embryos were fixed in 4% paraformaldehyde in PBS, embedded in tissue-tek and cryosections were stained with antibodies against Cld6, FoxA2 an YFP.
For chemically derived endoderm to be useful, it is important to determine its developmental potential, beyond the expression of endodermal markers. The ultimate goal is to direct the cells to form functional beta cells. To begin to address this possibility and functional potential of derived populations, mouse ES cells ubiquitously expressing enhanced yellow fluorescent protein (EYFP) (Hadjantonakis et al., 2002) were induced to form endoderm with IDE1, IDE2, or DMSO (control). At day 6 of treatment, the inventors dissociated and injected the cells into the gut tube (a derivative of endoderm) of live E8.75 embryos. The lumen of the gut tube can be accessed prior to the completion of embryonic turning and gut tube closure and therefore provides a developmental window for functional assessment of ES-derived endoderm cells. Chemically derived endoderm was injected into the primitive gut tube at the anterior and posterior intestinal portals. At this time the gut tube is still open and anterior intestinal portal is accessible (FIG. 6A). The embryos were cultured ex vivo for 24-30 hrs during which time the lateral walls of the embryonic gut fold ventrally and the gut tube closes, around E9.5. […] Cells induced by IDE1 treatment integrated into the gut, in 8 out of 35 cases, and in 7 out of 29 embryos for IDE2. Conversely, DMSO (control) treated cells never integrate into the developing gut tube (0/10 and 0/11, respectively) and instead remain in the lumen (FIG. 6B).

Row | Structure (SMILES) | dose dependence of Sox17 expression [1] | percent of cells expressing Sox17 [1] [%] | morphology of induced Sox17+ cells [2] | expression of extra-embryonic endoderm (EE) markers GATA4, SPARC, AFP, Dab2 in induced Sox17+ cells [2] | phosphorylation of Smad2 / activation of the TGF-β pathway [3] | incorporation of induced endodermal cells into gut tube (in words) [4] | embryos in which induced cells integrated into the gut [4]
1 | O=C(O)CCCCCC(=O)N/N=C/c1ccccc1C(=O)O [IDE1] | dose-depended manner | 62±8.1 | compact, epithelial sheet | marginal expression of EE markers; also recorded: no or a negligible number of cells positive for extra-embryonic markers | comparable to that induced by Activin A treatment; also recorded: activation of the TGF-β pathway | incorporate into gut tube and show expression of gut tube markers | 8 out of 35
2 | O=C(O)CCCCCC(=O)NN=C1CCCC1 [IDE2] | dose-depended manner | 57±6.7 | compact, epithelial sheet | only rarely detected; also recorded: no or a negligible number of cells positive for extra-embryonic markers | comparable to that induced by Activin A treatment; also recorded: activation of the TGF-β pathway | incorporate into gut tube and show expression of gut tube markers | 7 out of 29
